This note sets out measurements from PubChem BioAssay AID179 (DTP/NCI, 2004).

The structures appear in SMILES notation. Activity calls are given as the source filed them.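 Rule for the calls: active = compounds giving half or more protection of infected cells from virus-caused growth loss, again on retest; inactive = the rest.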

The assay concerns CEM cells HIV-1 protection, formazan growth assay. Put plainly: NCI AIDS Antiviral Assay. To be noted: for IC50: measured here: growth of uninfected CEM cells. A digest of the protocol:
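Category rules: moderately active means at least 50% protection on retest, and confirmed active means 100% protection reproducibly. The underlying data came from a formazan growth assay in HIV-1-infected CEM cells.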

In general, EC50 refers to the midpoint of the concentration-response curve. In general, IC50 refers to the concentration that gives 50% inhibition. A higher IC50 goes with lower potency. With `COc1ccc(/C(Cl)=C(\C=O)c2ccc(OC)c(OC)c2)cc1OC`, the EC50 was above 251 µM and the IC50 is above 251 µM. As to `O=C1NC(=O)C2(CC2)N1`, the EC50 was above 200 µM and the IC50 was above 200 µM.

In the case of `COC(=N)C1(C#N)NC(c2ccsc2)C(C#N)(C#N)NC1c1ccsc1` (stereo unspecified), the EC50 is above 200 µM and the IC50 was 56.2 µM. For the molecule `CN1C(=O)CC2(C)c3cc(O)ccc3N(C)C12` (stereo unspecified), the outcome was inactive. For the molecule `CC12CCC([C@H](N3CCOCC3)/C1=N\OCCN1CCCC1)C2(C)C` (stereo partly specified), the EC50 is above 251 µM and the 50% inhibitory concentration (IC50) turned out to be 138 µM.

Consider `CN1CCC2(CC1)C(C#N)C(=O)NC(=O)C2C#N` (stereo unspecified), for which the EC50 was above 339 µM and the IC50 was above 339 µM. On to `CSc1nnc(COc2ccc(Cl)cc2)o1`, for which the EC50 is above 263 µM and the IC50 is above 263 µM. For the molecule `CCc1cc(C(N)=S)ccn1`, the EC50 was above 200 µM and the IC50 is above 200 µM. On to `C=C1CN=C(Nc2ccc(Cl)cc2)S1`, for which the EC50 was above 200 µM and the IC50 worked out at 75.9 µM. For `CCOC(=O)/C(F)=C/c1ccc(C)cc1`, in that order: above 126 µM and above 126 µM. Take `COc1ccc(/C=C2\SC(=S)N(/C=C3\C(=O)N(c4ccccc4)N=C3C)C2=O)cc1OC`: the EC50 was above 200 µM and the IC50 came to 28.2 µM. Take `COc1ccc2c(c1)OCCN(C)OC2c1ccccc1` (stereo unspecified): the EC50 is above 200 µM and the half-inhibitory concentration (IC50) was above 200 µM. On to `COc1cc(Oc2nc3cc(F)c(F)cc3nc2-c2ccccc2)cc(OC)c1OC`, for which the EC50 was above 100 µM and the IC50 was 35.5 µM.

As for `Cn1c(=O)cc(NNc2ccccc2)[nH]c1=O`, the EC50 was above 200 µM and the IC50 was 3.09 µM.

On to `COc1ccccc1/C=C\C#N`, for which the EC50 was above 85.1 µM and the IC50 was above 85.1 µM. Consider `COc1cc(C2c3cc4c(cc3[C@H](NC(=O)c3cccs3)C3COC(=O)[C@H]23)OCO4)cc(OC)c1OC` (stereo partly specified), for which the outcome was inactive.

Take `O=C(Nc1ccc(Cl)cc1)c1cc2cc(N=Nc3ccc(Br)cc3)ccc2oc1=O`: the outcome was inactive. As to `COc1ccc(N=Nc2cc(OC)c(N=Nc3c(O)c4ccccc4[nH]c3=O)cc2OC)cc1`, the EC50 is above 100 µM and the IC50 is 15.5 µM. For the molecule `S=C(Nc1ccccc1)Nc1ccccc1S`, the EC50 was above 200 µM and the IC50 was found to be 112 µM. As for `CCC1(CC)C(=O)[N-]C(=O)[N-]C1=O.[Au+].[Au+].c1ccc([PH+](c2ccccc2)c2ccccc2)cc1.c1ccc([PH+](c2ccccc2)c2ccccc2)cc1`, the EC50 was above 6.61 µM and the concentration for half-maximal inhibition (IC50) is above 6.61 µM. In the case of `CC1=NC(C)(CO)CO1` (stereo unspecified), the EC50 was above 200 µM and the 50% inhibitory concentration (IC50) is above 200 µM.

As for `CSC(=S)NNC(=O)c1ccncc1`, the EC50 was above 12 µM and the 50% inhibitory concentration (IC50) was above 12 µM. Turning to `CCCc1cc(=O)oc2c3c(c4c(c12)OC(C)(C)CC4)O[C@@H](C)[C@H](C)[C@H]3O`, the EC50 was above 200 µM, the outcome was inactive and the half-maximal inhibitory concentration (IC50) turned out to be 33.1 µM. As to `CCCCCCCCCCCCCC(=O)OCC(CCS(=O)(=O)O[C@H]1CC[C@@]2(C)C(=CC[C@@H]3C2CC[C@]2(C)C(=O)CCC32)C1)OC(=O)CCCCCCCCCCCCC` (stereo partly specified), the EC50 is 39.8 µM and the half-inhibitory concentration (IC50) was above 100 µM.

`COC(=O)C1C2C/C(=N\O)C1C2` (stereo unspecified): the EC50 is above 501 µM and the IC50 was above 501 µM. `CCOC(=O)c1ccc(NC(=O)Nc2ccc(Cl)cn2)cc1`: the EC50 was above 200 µM and the IC50 was above 200 µM. Turning to `O=C(NCc1ccncc1)C1COc2cc(-c3cc(=O)c4ccccc4o3)ccc2O1` (stereo unspecified), the result was inactive. Consider `CC12CCC(c3sc(N)c(C#N)c31)C2(C)C` (stereo unspecified), for which the EC50 is above 191 µM and the 50% inhibitory concentration (IC50) is 35.5 µM.

For the molecule `CSc1nnc(CCC(=O)Nc2c(C)cccc2C)o1`, the EC50 was above 309 µM and the IC50 was above 309 µM. Turning to `CN(C)c1ccc(/C=C/C(=O)C(C)(C)C)cc1`, the result was inactive. Regarding `CN(C)c1ccc(C(=C2C=CC(=[N+](C)C)C=C2)c2c(O)c(S(=O)(=O)O)cc3cc(S(=O)(=O)O)ccc23)cc1`, the result was inactive. With `CCN(CC)c1cc2oc(=O)cc(C)c2cc1NC(=O)c1ccccc1`, the EC50 is above 45.7 µM and the IC50 worked out at 2.51 µM. For `O=C(Cc1ccccc1)NN1C(=O)C(Cl)C1c1ccccc1O` (stereo unspecified), in that order: above 77.6 µM and 24.5 µM. For `Cc1cc(C)c2c(c1)NP(=S)(c1ccccc1)N2` (stereo unspecified), in that order: above 200 µM and above 200 µM. For `N#C/C(=C\NC(=S)Nc1ccc(S(=O)(=O)Nc2nccs2)cc1)C(=O)c1ccc2ccccc2c1`, in that order: above 200 µM and 36.3 µM. In the case of `O=C(CCC(=O)C1Cc2ccccc2C1=O)Nc1cccc(C(F)(F)F)c1` (stereo unspecified), the EC50 was above 661 µM and the IC50 is above 661 µM. Consider `N#CCCNCCN(CCN(C(=O)Nc1ccccc1)c1ccccc1)C(=O)Nc1ccccc1`, for which the EC50 was above 200 µM and the IC50 was 93.3 µM. As for `Nc1ncnc2c1ncn2C1OC(CO)CC1O` (stereo unspecified), the result was inactive. As for `N#Cc1[nH]c(=S)[nH]c1N`, the EC50 is above 200 µM and the IC50 worked out at 117 µM. For the molecule `Cc1cc(Cl)ccc1NC(=O)CC1SC(N)=NC1=O` (stereo unspecified), the EC50 was above 832 µM and the IC50 is above 832 µM.

With `CSc1nc2[nH]c(=O)n(OS(=O)(=O)c3ccccc3)c(=O)c2n1Cc1ccccc1`, the EC50 is above 200 µM and the IC50 was determined as 105 µM. For `N#Cc1[nH]c(=O)n(-c2ccccc2)c1N`, in that order: above 200 µM and above 200 µM. For `C[N+]1(CCCl)CCc2ccc([N+](=O)[O-])cc2C1` (stereo unspecified), in that order: above 200 µM and above 200 µM. Consider `N#Cc1c(O)c(C=O)c(=O)n2c1[nH]c1ccccc12`, for which the EC50 is above 200 µM and the IC50 is 170 µM. Take `C=C(OC1C(C)=C2C(C1OC(=O)CCCCCCC)C(C)(OC(C)=O)CC(OC(=O)CCC)C1(O)C2OC(=O)C1(C)O)/C(C)=C/C` (stereo unspecified): the EC50 was above 2 µM and the IC50 amounted to 0.00282 µM. For `CC(=O)c1sc(/N=C\c2c(O)c3ccccc3oc2=O)nc1C`, in that order: above 200 µM and 38.9 µM. As for `COc1ccc(-c2cc(-c3ccccc3)c(C#N)c(=O)[nH]2)cc1`, the EC50 is above 61.7 µM and the IC50 was above 61.7 µM. In the case of `COc1ccc(/C=N/NC(=O)c2ccccc2Nc2ccccc2C(=O)N/N=C/c2ccc(OC)cc2)cc1`, the EC50 was above 102 µM and the concentration for half-maximal inhibition (IC50) stood at 85.1 µM. For the molecule `Cn1c2ccccc2c2oc(-c3nn[nH]n3)cc(=O)c21`, the EC50 was above 126 µM and the IC50 is above 126 µM. As for `Cc1cc2c(cc1-c1cc3c(cc1C)C(C(C)C)=C(O)C(=O)/C3=C\Nc1c(C)n(C)n(-c3ccccc3)c1=O)/C(=C/Nc1c(C)n(C)n(-c3ccccc3)c1=O)C(=O)C(O)=C2C(C)C`, the EC50 was above 200 µM and the IC50 was 34.7 µM.

On to `Cc1nc(-c2ccccc2)c(C)n2c1nc1ccccc12`, for which the EC50 is above 200 µM and the IC50 is 28.8 µM. For `O=C1Sc2cc([N+](=O)[O-])ccc2C(=O)N2CSCC12` (stereo unspecified), in that order: above 50.1 µM and above 50.1 µM.

For `Cc1cc(S(=O)(=O)NC2=NCC(C)(C)CN2)c(S)cc1Cl`, the EC50 was above 200 µM and the IC50 is 87.1 µM. For `CC(C)OC(=O)C(NC(=O)C(CC(=O)OCc1ccccc1)NC(=O)OCc1ccccc1)NC(=O)C1C(C)(C)CCC1(C)C` (stereo unspecified), in that order: above 200 µM and 12.6 µM. For `O=C(Nc1c(-c2nc3ccccc3[nH]2)sc(=S)n1-c1ccccc1)c1ccccc1`, in that order: above 3.39 µM and above 3.39 µM.

For the molecule `CC(C)=O.O=C([O-])C(F)(F)F.O=C([O-])C(F)(F)F.O=C([O-])C(F)(F)F.O=C([O-])C(F)(F)F.[Rh+2].[Rh+2]`, the EC50 is above 200 µM and the IC50 was above 200 µM. Regarding `O=C1OCCOCCOCCOCCOC(=O)c2cccc1c2`, the EC50 is above 155 µM and the IC50 is above 155 µM. On to `O=C(/C=C/c1ccccc1)Oc1ccc(C(=O)/C=C/c2ccc(Cl)cc2)cc1`, for which the EC50 was above 100 µM and the IC50 is 44.7 µM.

Consider `COc1nc(NC2OCC(OC(C)=O)C(OC(C)=O)C2OC(C)=O)c(C(=O)CCl)c(=O)n1C` (stereo unspecified), for which the outcome was inactive. Turning to `C=C1CC(COc2ccc3c(C)c(Cl)c(=O)oc3c2)(c2ccccc2)OC1=O` (stereo unspecified), the EC50 is above 200 µM and the IC50 was 0.363 µM. For `Nc1ncnc2c1ncn2C1CCC(=O)C1` (stereo unspecified), in that order: above 1150 µM and 174 µM. Take `Cn1c(=O)c2[nH]c(=O)c(C(CO)C(=O)c3ccccc3)nc2n(C)c1=O` (stereo unspecified): the EC50 was above 200 µM and the IC50 was 9.55 µM. For `CCOC(=O)C(=CNC(=S)c1ccncc1)C(=O)OCC`, in that order: above 200 µM and above 200 µM. For `S=C1SC(=Nc2ccccc2)C(=Nc2ccccc2)N1c1ccccc1`, the EC50 is above 200 µM and the IC50 came out at 91.2 µM. In the case of `CCNC(=S)N/N=C(\C)c1ccccn1`, the EC50 is above 0.2 µM and the IC50 was found to be 0.0158 µM. Take `NCCCN1CCN(CCCN)CC1` (tested in a mixture with another compound): the EC50 was above 200 µM and the concentration for half-maximal inhibition (IC50) was above 200 µM. With `COc1ccc(C2c3[nH]c4ccccc4c3CCN2O)cc1` (stereo unspecified), the result was inactive. On to `O=C1CCC2(CC1CCSc1ccccc1)OCCO2` (stereo unspecified), for which the EC50 was above 200 µM and the concentration for half-maximal inhibition (IC50) is 126 µM. Consider `Oc1cc(O)cc(/C=C/c2ccc(O)c(O)c2)c1`, for which the result was inactive. Take `Cc1cc(C)c(S(=O)(=O)Sc2nnnn2C)c(C)c1`: the EC50 is above 603 µM and the IC50 amounted to 126 µM. For `Nc1nc(-c2ccco2)cc(-c2ccc(CO)o2)n1`, in that order: above 195 µM and 107 µM. Turning to `COC(=O)CSSCC(=O)OC`, the result was inactive. As for `O=[N+]([O-])c1ccc(Sc2c3ccccc3nc3cc(Cl)ccc23)cc1`, the EC50 was above 3.98 µM and the concentration for half-maximal inhibition (IC50) is above 3.98 µM.
